# Measured values as given in patent US20150105252A1, “SUBSTITUTED PYRAZOLES AS HERBICIDES” (E I DU PONT DE NEMOURS AND COMPANY, priority 2013, published 2015).
# Tests used:
# barnyardgrass = assay: Test A preemergence; format: in vivo, Echinochloa crus-galli; settings: 0 to 100 scale
# Summary of the method: (§1)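 After sowing in a sand–loam mix, pots received compound preemergence by directed soil spray, or postemergence once plants reached the one- to two-leaf stage (2–10 cm). Formulation contained surfactant in a non-phytotoxic solvent. Injury was scored visually after ~10 greenhouse days, 0–100 scale.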
# pigweed [1] = assay: Test A preemergence; format: in vivo, Amaranthus retroflexus; settings: 0 to 100 scale
# Summary of the method: as §1
# velvetleaf [2] = assay: Test A preemergence; format: in vivo, Abutilon theophrasti; settings: 0 to 100 scale
# Summary of the method: as §1
# pigweed [3] = assay: Test A postemergence; format: in vivo, Amaranthus retroflexus
# Summary of the method: as §1
# velvetleaf [4] = assay: Test A postemergence; format: in vivo, Abutilon theophrasti
# Summary of the method: as §1
# foxtail, giant = assay: Test C preemergence; format: in vivo, Setaria faberii
# Summary of the method: (§2)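 Pre- and postemergence greenhouse screen; vehicle was a non-phytotoxic solvent mix with surfactant. Preemergence: treatment applied right after sowing into loam and sand. Postemergence: treated at 1–4 leaves. Visual rating at 13–15 days, 100 = complete control.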
# johnsongrass [5] = assay: Test C preemergence; format: in vivo, Sorghum halepense
# Summary of the method: as §2
# ragweed = assay: Test C preemergence; format: in vivo, Ambrosia elation
# Summary of the method: as §2
# soybean = assay: Test C preemergence; format: in vivo, Glycine max
# Summary of the method: as §2
# corn = assay: Test C postemergence; format: in vivo, Zea mays; settings: for Corn plant response rating: scale 0 to 100; for Plant response rating, Corn: 125 g ai/ha, scale 0 to 100, 0 no effect, 100 complete control
# Summary of the method: as §2
# johnsongrass [6] = assay: Test C postemergence; format: in vivo, Sorghum halepense; settings: for Johnsongrass plant response rating: scale 0 to 100
# Summary of the method: as §2
# lambsquarters = assay: Test C postemergence; format: in vivo, Chenopodium album; settings: for Lambsquarters plant response rating: scale 0 to 100
# Summary of the method: as §2
# waterhemp = assay: Test C postemergence; format: in vivo, Amaranthus rudis; settings: for Waterhemp plant response rating / Plant response rating, Waterhemp: postemergence; for Waterhemp plant response rating: 62 g ai/ha, scale 0 to 100
# From the text: Seeds of plant species selected from blackgrass (Alopecurus myosuroides), ryegrass, Italian (Italian ryegrass, Lolium multiflorum), wheat (winter wheat, Triticum aestivum), galium (catchweed bedstraw, Galium aparine), corn (Zea mays), crabgrass, large (large crabgrass, Digitaria sanguinalis), foxtail, giant (giant foxtail, Setaria faberii), johnsongrass (Sorghum halepense), lambsquarters (Chenopodium album), morningglory (Ipomoea coccinea), nutsedge, yellow (yellow nutsedge, Cyperus esculentus), pigweed (redroot pigweed, Amaranthus retroflexus), ragweed (common ragweed, Ambrosia elation), soybean (Glycine max), barnyardgrass (Echinochloa crus-galli), oilseed rape (Brassica napus), waterhemp (common waterhemp, Amaranthus rudis), oat, wild (wild oat, Avena fatua), kochia (Kochia scoparia), Surinam grass (Brachiaria decumbens), foxtail, green (green foxtail, Setaria viridis), goosegrass (Eleusine indica), bromegrass, downy (downy bromegrass, Bromus tectorum), nightshade (eastern black nightshade, Solanum ptycanthum), cocklebur (common cocklebur, Xanthium strumarium), cupgrass, woolly (woolly cupgrass, Eriochloa villosa), bermudagrass (Cynodon dactylon), sunflower, (common oilseed sunflower, Helianthus annuus), Russian thistle (Salsola kali), and velvetleaf (Abutilon theophrasti) were planted into a blend of loam soil and sand and treated preemergence with test chemicals formulated in a non-phytotoxic solvent mixture which included a surfactant.
# At the same time, plants selected from these crop and weed species and also chickweed (common chickweed, Stellaria media), canarygrass (littleseed canarygrass, Phalaris minor), and deadnettle (henbit deadnettle, Lamium amplexicaule), were planted in pots containing Redi-Earth® planting medium (Scotts Company, 14111 Scottslawn Road, Marysville, Ohio 43041) comprising spaghnum peat moss, vermiculite, wetting agent and starter nutrients and treated with postemergence applications of test chemicals formulated in the same manner. Plants ranged in height from 2 to 18 cm (1- to 4-leaf stage) for postemergence treatments. Treated plants and controls were maintained in a greenhouse for 13 to 15 days, after which time all species were compared to controls and visually evaluated. Plant response ratings, summarized in Table C, are based on a scale of 0 to 100 where 0 is no effect and 100 is complete control. A dash (-) response means no test result.
# [7] = Preemergence, 500 g ai/ha, 0 no effect, 100 complete control
# [8] = preemergence, 125 g ai/ha, visual injury, approx. 10 days
# [9] = Postemergence, 500 g ai/ha, visual rating after approx. 10 days, 0 to 100 scale (0 no effect, 100 complete control)
# [10] = postemergence, 125 g ai/ha, about 10 days, visual rating on 0 to 100 scale (0 no effect, 100 complete control)
# [11] = preemergence, 31 g ai/ha, scale 0 to 100 (0 no effect, 100 complete control), 13 to 15 days
# [12] = preemergence, 62 g ai/ha, 13 to 15 days, scale 0 to 100, 0 = no effect, 100 = complete control
# [13] = preemergence, 125 g ai/ha, scale 0 to 100, 0 is no effect, 100 is complete control
# [14] = Postemergence, 31 g ai/ha, visually evaluated after 13 to 15 days
# [15] = postemergence, 250 g ai/ha, scale 0 to 100 (0 no effect, 100 complete control)
# [16] = postemergence, 125 g ai/ha, scale 0 to 100, 0 no effect, 100 complete control
# [17] = 125 g ai/ha, scale 0 to 100, 0 no effect, 100 complete control
# [18] = Preemergence, 16 g ai/ha, scale 0 to 100
smiles,measurement,setting,value
CCc1cc(C(=O)NC2CC2)nn1Cc1ccnc(C(F)(F)F)c1 [Compound 76],Barnyardgrass plant response rating,barnyardgrass; [7],100
same,Barnyardgrass plant response rating,barnyardgrass; [8],80
same,Pigweed plant response rating,pigweed [1]; [7],100
same,Pigweed plant response rating,pigweed [1]; [8],100
same,Velvetleaf plant response rating,velvetleaf [2]; [7],60
same,Velvetleaf plant response rating,velvetleaf [2]; [8],20
same,Pigweed plant response rating,pigweed [3]; [9],100
same,Pigweed plant response rating,pigweed [3]; [10],100
same,Velvetleaf plant response rating,velvetleaf [4]; [9],90
same,Velvetleaf plant response rating,velvetleaf [4]; [10],30
same,"Plant response rating (scale of 0 to 100), Foxtail, Giant","foxtail, giant; Preemergence, 250 g ai/ha",100
same,"Foxtail, Giant plant response rating","foxtail, giant; [11]",100
same,"Plant response rating, Foxtail, Giant","foxtail, giant; [12]",100
same,"Foxtail, Giant plant response rating","foxtail, giant; [13]",100
same,"Plant response rating (scale of 0 to 100), Johnsongrass","johnsongrass [5]; Preemergence, 250 g ai/ha",100
same,Johnsongrass plant response rating,johnsongrass [5]; [11],80
same,"Plant response rating, Johnsongrass",johnsongrass [5]; [12],100
same,Johnsongrass plant response rating,johnsongrass [5]; [13],100
same,"Plant response rating (scale of 0 to 100), Ragweed","ragweed; Preemergence, 250 g ai/ha",100
same,Ragweed plant response rating,ragweed; [11],90
same,"Plant response rating, Ragweed",ragweed; [12],100
same,Ragweed plant response rating,ragweed; [13],100
same,"Plant response rating (scale of 0 to 100), Soybean","soybean; Preemergence, 250 g ai/ha",100
same,Soybean plant response rating,soybean; [11],80
same,"Plant response rating, Soybean",soybean; [12],98
same,Soybean plant response rating,soybean; [13],98
same,"Plant response rating (scale of 0 to 100 where 0 is no effect and 100 is complete control), Corn",corn; [14],5
same,Corn plant response rating,"corn; postemergence, 62 g ai/ha",10
same,"Plant response rating, Corn",corn; postemergence,20
same,"Plant response rating (scale of 0 to 100 where 0 is no effect and 100 is complete control), Johnsongrass",johnsongrass [6]; [14],0
same,Johnsongrass plant response rating,"johnsongrass [6]; postemergence, 62 g ai/ha",0
same,"Plant response rating, Johnsongrass",johnsongrass [6]; [15],25
same,"Plant response rating, Johnsongrass",johnsongrass [6]; [16],25
same,"Plant response rating (scale of 0 to 100 where 0 is no effect and 100 is complete control), Lambsquarters",lambsquarters; [14],75
same,Lambsquarters plant response rating,"lambsquarters; postemergence, 62 g ai/ha",75
same,"Plant response rating, Lambsquarters",lambsquarters; [15],85
same,"Plant response rating, Lambsquarters",lambsquarters; [16],85
same,"Plant response rating (scale of 0 to 100 where 0 is no effect and 100 is complete control), Waterhemp",waterhemp; [14],60
same,Waterhemp plant response rating,waterhemp,70
same,"Plant response rating, Waterhemp","waterhemp; 250 g ai/ha, scale 0 to 100 (0 no effect, 100 complete control)",100
same,"Plant response rating, Waterhemp",waterhemp; [17],75
CCCNC(=O)c1cc(CC)n(Cc2ccnc(C(F)(F)F)c2)n1 [Compound 75],Barnyardgrass plant response rating,barnyardgrass; [7],100
same,Barnyardgrass plant response rating,barnyardgrass; [8],100
same,Pigweed plant response rating,pigweed [1]; [7],100
same,Pigweed plant response rating,pigweed [1]; [8],100
same,Velvetleaf plant response rating,velvetleaf [2]; [7],100
same,Velvetleaf plant response rating,velvetleaf [2]; [8],80
same,Pigweed plant response rating,pigweed [3]; [9],100
same,Pigweed plant response rating,pigweed [3]; [10],100
same,Velvetleaf plant response rating,velvetleaf [4]; [9],100
same,Velvetleaf plant response rating,velvetleaf [4]; [10],90
same,"Plant response rating, Foxtail, Giant","foxtail, giant; [18]",80
same,"Foxtail, Giant plant response rating","foxtail, giant; [11]",85
same,"Plant response rating, Foxtail, Giant","foxtail, giant; [12]",100
same,"Foxtail, Giant plant response rating","foxtail, giant; [13]",100
same,"Plant response rating, Johnsongrass",johnsongrass [5]; [18],65
same,Johnsongrass plant response rating,johnsongrass [5]; [11],100
same,"Plant response rating, Johnsongrass",johnsongrass [5]; [12],100
same,Johnsongrass plant response rating,johnsongrass [5]; [13],100
same,"Plant response rating, Ragweed",ragweed; [18],70
same,Ragweed plant response rating,ragweed; [11],90
same,"Plant response rating, Ragweed",ragweed; [12],90
same,Ragweed plant response rating,ragweed; [13],100
same,"Plant response rating, Soybean",soybean; [18],35
same,Soybean plant response rating,soybean; [11],85
same,"Plant response rating, Soybean",soybean; [12],98
same,Soybean plant response rating,soybean; [13],98
same,"Plant response rating (scale of 0 to 100), Corn","corn; Postemergence, 16 g ai/ha",0
same,Corn plant response rating,"corn; Postemergence, 31 g ai/ha",5
same,Corn plant response rating,"corn; postemergence, 62 g ai/ha",20
same,"Plant response rating, Corn",corn; postemergence,40
same,"Plant response rating (scale of 0 to 100), Johnsongrass","johnsongrass [6]; Postemergence, 16 g ai/ha",10
same,Johnsongrass plant response rating,"johnsongrass [6]; Postemergence, 31 g ai/ha",10
same,Johnsongrass plant response rating,"johnsongrass [6]; postemergence, 62 g ai/ha",10
same,"Plant response rating, Johnsongrass",johnsongrass [6]; [16],10
same,"Plant response rating (scale of 0 to 100), Lambsquarters","lambsquarters; Postemergence, 16 g ai/ha",70
same,Lambsquarters plant response rating,"lambsquarters; Postemergence, 31 g ai/ha",70
same,Lambsquarters plant response rating,"lambsquarters; postemergence, 62 g ai/ha",85
same,"Plant response rating, Lambsquarters",lambsquarters; [16],90
same,Waterhemp plant response rating,waterhemp,45
same,"Plant response rating, Waterhemp",waterhemp; [17],75
